Type in all cases: biochemical
In one assay the target is T1, LATS2 (Homo sapiens, UniProt Q9NRM7).
T1 sequence (Q9NRM7 1-1088): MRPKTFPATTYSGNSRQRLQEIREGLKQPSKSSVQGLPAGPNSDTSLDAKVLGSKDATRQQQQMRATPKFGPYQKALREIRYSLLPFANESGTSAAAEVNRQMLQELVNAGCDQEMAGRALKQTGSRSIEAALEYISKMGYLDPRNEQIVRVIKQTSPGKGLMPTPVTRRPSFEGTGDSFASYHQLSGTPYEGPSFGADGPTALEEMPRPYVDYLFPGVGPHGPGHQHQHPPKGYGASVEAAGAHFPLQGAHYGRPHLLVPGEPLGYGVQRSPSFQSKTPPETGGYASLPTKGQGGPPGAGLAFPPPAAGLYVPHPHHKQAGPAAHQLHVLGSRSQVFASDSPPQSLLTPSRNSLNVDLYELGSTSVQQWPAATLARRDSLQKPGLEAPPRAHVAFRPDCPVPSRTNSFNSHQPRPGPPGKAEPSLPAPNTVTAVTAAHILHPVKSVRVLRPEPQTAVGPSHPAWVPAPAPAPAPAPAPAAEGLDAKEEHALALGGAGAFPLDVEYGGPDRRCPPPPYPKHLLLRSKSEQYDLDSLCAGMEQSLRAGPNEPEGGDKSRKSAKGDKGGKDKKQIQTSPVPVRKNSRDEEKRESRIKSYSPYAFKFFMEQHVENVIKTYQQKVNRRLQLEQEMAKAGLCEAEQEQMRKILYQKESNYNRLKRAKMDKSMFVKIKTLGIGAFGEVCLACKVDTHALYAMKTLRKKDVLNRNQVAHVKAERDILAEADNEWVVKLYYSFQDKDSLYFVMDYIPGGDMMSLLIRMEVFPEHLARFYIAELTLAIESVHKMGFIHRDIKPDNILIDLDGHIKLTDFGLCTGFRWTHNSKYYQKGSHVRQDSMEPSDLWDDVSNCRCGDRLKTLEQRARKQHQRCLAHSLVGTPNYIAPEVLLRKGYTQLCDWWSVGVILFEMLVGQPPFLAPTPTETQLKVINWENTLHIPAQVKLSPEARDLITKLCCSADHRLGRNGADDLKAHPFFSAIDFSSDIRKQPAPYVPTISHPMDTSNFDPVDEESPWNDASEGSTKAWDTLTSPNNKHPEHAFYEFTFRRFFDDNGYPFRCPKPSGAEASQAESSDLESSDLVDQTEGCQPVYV
Kind of assay: RBC HotSpot kinase assay (33P-ATP, P81 filter-binding), LATS2. Particulars: Table 28, biochemical kinase assay; read-out: LATS2 IC50. A digest of the protocol: (§1)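 Substrate in fresh buffer receives cofactors, then kinase, then compound in DMSO for a 20 min room-temperature preincubation. Reactions start with 33P-ATP and run 2 h; phosphorylation is read by P81 filter binding, and IC50 comes from a 10-point curve.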

A further assay has as its target AKT (Homo sapiens, UniProt P31749). The experiment in a line: RBC HotSpot kinase assay (33P-ATP, P81 filter-binding), AKT. Particulars: Table 28, biochemical kinase assay; read-out: AKT IC50. In outline:
as §1

For another assay, the target named is T2, LATS1 (Homo sapiens, UniProt O95835).
T2 sequence (O95835 1-1130): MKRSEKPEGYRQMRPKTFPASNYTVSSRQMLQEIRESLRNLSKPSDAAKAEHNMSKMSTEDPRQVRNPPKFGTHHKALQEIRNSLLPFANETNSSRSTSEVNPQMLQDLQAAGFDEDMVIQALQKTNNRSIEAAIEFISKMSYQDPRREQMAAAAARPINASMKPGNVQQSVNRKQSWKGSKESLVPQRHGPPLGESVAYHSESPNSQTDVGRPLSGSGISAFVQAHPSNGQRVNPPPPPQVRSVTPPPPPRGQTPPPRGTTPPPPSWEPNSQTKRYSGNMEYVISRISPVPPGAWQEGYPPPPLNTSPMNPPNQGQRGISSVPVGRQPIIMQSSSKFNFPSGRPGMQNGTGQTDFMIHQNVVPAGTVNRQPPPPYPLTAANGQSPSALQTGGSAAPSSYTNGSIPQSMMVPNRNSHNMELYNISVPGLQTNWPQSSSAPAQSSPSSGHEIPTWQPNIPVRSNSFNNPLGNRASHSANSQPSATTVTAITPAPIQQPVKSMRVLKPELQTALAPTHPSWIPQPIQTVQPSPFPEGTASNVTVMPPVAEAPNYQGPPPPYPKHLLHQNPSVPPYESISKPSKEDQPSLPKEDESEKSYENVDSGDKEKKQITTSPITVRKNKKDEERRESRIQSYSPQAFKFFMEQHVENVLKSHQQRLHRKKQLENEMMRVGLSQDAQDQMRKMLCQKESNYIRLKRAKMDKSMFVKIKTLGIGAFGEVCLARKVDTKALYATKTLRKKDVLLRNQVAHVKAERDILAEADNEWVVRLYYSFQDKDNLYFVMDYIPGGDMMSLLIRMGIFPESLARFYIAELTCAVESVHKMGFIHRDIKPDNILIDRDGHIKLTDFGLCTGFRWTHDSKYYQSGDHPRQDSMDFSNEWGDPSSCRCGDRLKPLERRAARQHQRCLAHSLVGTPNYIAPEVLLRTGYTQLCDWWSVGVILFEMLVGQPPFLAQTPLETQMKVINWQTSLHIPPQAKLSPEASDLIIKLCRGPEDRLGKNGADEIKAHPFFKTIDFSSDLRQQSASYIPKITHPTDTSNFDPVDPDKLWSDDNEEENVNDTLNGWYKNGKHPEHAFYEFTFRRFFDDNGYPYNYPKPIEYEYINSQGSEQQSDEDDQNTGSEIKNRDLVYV
The experiment in a line: RBC HotSpot kinase assay (33P-ATP, P81 filter-binding), LATS1. The following applies: Table 28, biochemical kinase assay; read-out: LATS1 IC50. A digest of the protocol: as §1

Some results are limits rather than exact numbers.

Sequence of AKT (P31749 whole entry): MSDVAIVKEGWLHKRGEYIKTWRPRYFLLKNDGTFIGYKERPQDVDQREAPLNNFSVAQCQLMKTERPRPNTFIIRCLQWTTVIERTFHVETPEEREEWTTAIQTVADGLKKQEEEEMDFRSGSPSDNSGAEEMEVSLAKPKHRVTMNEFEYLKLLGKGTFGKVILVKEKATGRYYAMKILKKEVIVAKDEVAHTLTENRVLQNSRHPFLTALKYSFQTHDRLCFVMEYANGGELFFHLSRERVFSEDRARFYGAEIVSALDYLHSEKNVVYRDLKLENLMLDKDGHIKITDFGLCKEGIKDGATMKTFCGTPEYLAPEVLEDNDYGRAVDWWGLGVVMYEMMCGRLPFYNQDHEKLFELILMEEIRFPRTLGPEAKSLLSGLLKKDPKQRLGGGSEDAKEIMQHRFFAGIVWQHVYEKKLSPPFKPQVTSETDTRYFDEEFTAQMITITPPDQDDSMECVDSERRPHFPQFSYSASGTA

Turning to `CC1CNCCC1(O)c1ccc(-c2ccnc3[nH]cc(F)c23)cc1Cl` (stereo not drawn) [Compound 99, 4-(2-chloro-4-(3-fluoro-1H-pyrrolo[2,3-b]pyridin-4-yl)phenyl)-3-methylpiperidin-4-ol], the IC50 at LATS2 was 6.2 nM; on AKT it was 219 nM; on LATS1 it was 10.6 nM.
On the same counts, the results for `CC1CC(O)(c2ccc(-c3ccnc4[nH]cc(F)c34)cc2Cl)CC(C)N1` (stereo not drawn) [Compound 100, 4-(2-chloro-4-(3-fluoro-1H-pyrrolo[2,3-b]pyridin-4-yl)phenyl)-2,6-dimethylpiperidin-4-ol] are 195 nM, 1900 nM and 230 nM.
`COC(=O)c1c[nH]c2nccc(-c3ccc(C4(O)CCNCC4)c(Cl)c3)c12` [Compound 101, methyl 4-(3-chloro-4-(4-hydroxypiperidin-4-yl)phenyl)-1H-pyrrolo[2,3-b]pyridine-3-carboxylate]: the IC50 on LATS2 amounted to 70.8 nM; at AKT it was 1950 nM; at LATS1 it was 7.1 nM.
The matching figures for `OC1(c2ccc(-c3ccnc4[nH]cc(F)c34)cc2Cl)C2CNCC1C2` (stereo not drawn) [Compound 102, 6-(2-chloro-4-(3-fluoro-1H-pyrrolo[2,3-b]pyridin-4-yl)phenyl)-3-azabicyclo[3.1.1]heptan-6-ol]: 224 nM, 4870 nM and 82 nM.
The matching figures for `O[C@]1(c2ccc(-c3ccnc4[nH]cc(F)c34)cc2Cl)[C@@H]2CC[C@H]1CNC2` [Compound 103, (1R,5S,8s)-8-(2-chloro-4-(3-fluoro-1H-pyrrolo[2,3-b]pyridin-4-yl)phenyl)-3-azabicyclo[3.2.1]octan-8-ol]: 162 nM, 1720 nM and 43.9 nM.
On the same counts, the results for `Cc1nc(-c2ccnc3[nH]cc(F)c23)ccc1C1(O)CCNCC1` [Compound 104, 4-(6-(3-fluoro-1H-pyrrolo[2,3-b]pyridin-4-yl)-2-methylpyridin-3-yl)piperidin-4-ol] are 326 nM, 6580 nM and 145 nM.
As for `OC1(c2ccc(-c3ccnc4[nH]cc(F)c34)cc2Cl)CNC1` [Compound 105, 3-(2-chloro-4-(3-fluoro-1H-pyrrolo[2,3-b]pyridin-4-yl)phenyl)azetidin-3-ol], the results for the IC50 at LATS2, on AKT and at LATS1 were 14 nM, 828 nM and 16 nM, respectively.
On the same counts, the results for `COC(=O)c1c[nH]c2nccc(-c3ccc(C4(O)CNC4)c(Cl)c3)c12` [Compound 106, methyl 4-(3-chloro-4-(3-hydroxyazetidin-3-yl)phenyl)-1H-pyrrolo[2,3-b]pyridine-3-carboxylate] are 110 nM, 885 nM and 18.2 nM.
Take `Cc1nc(-c2ccnc3[nH]cc(F)c23)ccc1C1(O)CC2(CNC2)C1` [Compound 107, 6-(6-(3-fluoro-1H-pyrrolo[2,3-b]pyridin-4-yl)-2-methylpyridin-3-yl)-2-azaspiro[3.3]heptan-6-ol]: the values for the IC50 at LATS2, on AKT and at LATS1 were 661 nM, over 10000 nM and 473 nM, respectively.
The matching figures for `Cc1cc(-c2ccnc3[nH]cc(F)c23)cc(F)c1C1(O)CC2(CNC2)C1` [Compound 108, 6-(2-fluoro-4-(3-fluoro-1H-pyrrolo[2,3-b]pyridin-4-yl)-6-methylphenyl)-2-azaspiro[3.3]heptan-6-ol]: 24.8 nM, 1270 nM and 17.4 nM.
The matching figures for `OC1(c2c(F)cc(-c3ccnc4[nH]cc(F)c34)cc2F)CC2(CNC2)C1` [Compound 109, 6-(2,6-difluoro-4-(3-fluoro-1H-pyrrolo[2,3-b]pyridin-4-yl)phenyl)-2-azaspiro[3.3]heptan-6-ol]: 61 nM, 2980 nM and 46 nM.
For `COC(=O)c1c[nH]c2nccc(-c3ccc(C4(O)CCNCC4)cc3)c12` [Compound 112, methyl 4-(4-(4-hydroxypiperidin-4-yl)phenyl)-1H-pyrrolo[2,3-b]pyridine-3-carboxylate], the IC50 came to 18 nM on LATS2, 2330 nM at AKT and 9.2 nM on LATS1.
On the same counts, the results for `COC(=O)c1c[nH]c2nccc(-c3ccc(C4(O)C[C@H]5CC[C@@H](C4)N5)cc3)c12` (stereo partly drawn) [Compound 113, methyl 4-(4-((1R,5S)-3-hydroxy-8-azabicyclo[3.2.1]octan-3-yl)phenyl)-1H-pyrrolo[2,3-b]pyridine-3-carboxylate] are 65.5 nM, 1060 nM and 12.4 nM.
Consider `OC1(c2ccc(-c3ccnc4[nH]cc(F)c34)cc2)C[C@H]2CC[C@@H](C1)N2` (stereo partly drawn) [Compound 114, (1R,5S)-3-(4-(3-fluoro-1H-pyrrolo[2,3-b]pyridin-4-yl)phenyl)-8-azabicyclo[3.2.1]octan-3-ol], for which the IC50 at LATS2 worked out at 19 nM; at AKT it was 390 nM; at LATS1, 23 nM.
The matching figures for `OC1(c2ccc(-c3ccnc4[nH]ccc34)cc2)C[C@H]2CC[C@@H](C1)N2` (stereo partly drawn) [Compound 115, (1R,5S)-3-(4-(1H-pyrrolo[2,3-b]pyridin-4-yl)phenyl)-8-azabicyclo[3.2.1]octan-3-ol]: 10 nM, 176 nM and 7.2 nM.
For `OC1(c2ccc(-c3ccnc4[nH]cc(F)c34)cc2)CNC1` [Compound 116, 3-(4-(3-fluoro-1H-pyrrolo[2,3-b]pyridin-4-yl)phenyl)azetidin-3-ol], the figures for the IC50 at LATS2, at AKT and on LATS1 were 16.7 nM, 468 nM and 9.2 nM, respectively.
As to `OC1(c2ccc(-c3ccnc4[nH]cc(Br)c34)cc2)CCNCC1` [Compound 117, 4-(4-(3-bromo-1H-pyrrolo[2,3-b]pyridin-4-yl)phenyl)piperidin-4-ol], the IC50 at LATS2 worked out at 3.2 nM; on AKT, 240 nM; at LATS1, 4.2 nM.
The matching figures for `OC1(c2ccc(-c3ccnc4[nH]cc(Br)c34)cc2)C[C@H]2CC[C@@H](C1)N2` (stereo partly drawn) [Compound 118, (1R,5S)-3-(4-(3-bromo-1H-pyrrolo[2,3-b]pyridin-4-yl)phenyl)-8-azabicyclo[3.2.1]octan-3-ol]: 0.9 nM, 14 nM and 1.8 nM.
